In experiment [1] the test system is human peripheral blood mononuclear cells (PBMCs). The experiment is described as follows: Inhibition of LPS-induced TNFα production by PBMCs. It counts as cell-based. The note with it: PBMC, inhibition of LPS-stimulated TNFα production. How it is done:
The effect of test compounds on nuclear factor kappa B (NFκB) activation in cells was assessed by measuring inhibition of tumour necrosis factor alpha (TNFα) production by human peripheral blood mononuclear cells (PBMCs) stimulated by bacterial lipopolysaccharide (LPS).
Human blood (250 ml), anticoagulated with heparin, was collected from healthy volunteers. Aliquots of blood (25 ml) were layered on 20 ml Lymphoprep (Nycomed) in 50 ml polypropylene centrifuge tubes. The tubes were centrifuged (Sorval RT600B) at 2,500 rpm for 30 minutes. The cloudy layer containing PBMCs was collected with a fine tipped Pasteur pipette, transferred into 8 clean polypropylene centrifuge tubes (approximately 10 ml per tube) and diluted to 50 ml with phosphate-buffered saline (PBS). These tubes were centrifuged at 2,000 rpm for 8 minutes. PBS (10 ml) was added to each cell pellet and the cells were gently re-suspended. The cells were pooled in 4 centrifuge tubes, PBS was added to each tube to make the volume up to 50 ml and the tubes were centrifuged at 1,400 rpm for 8 minutes. The cell pellets were again re-suspended in 10 ml PBS, pooled in 2 centrige tubes, the volume made up to 50 ml with PBS and the tubes centrifuged at 900 rpm for 10 minutes.
The final cell pellets were gently re-suspended in 10 ml tissue culture medium (RPMI containing 1% heat-inactivated human serum, L-glutamine and penicillin and streptomycin), combined into 1 tube and the volume made up to 30 ml with RPMI medium. The cells were counted and the cell suspension was diluted to 2.6×10^6 cells/ml.
Test compounds were dissolved in DMSO to 10 mM and diluted 1 in 250 (40 μM) with RPMI medium. The compounds were then serially diluted 1 in 3 with 0.4% DMSO in RPMI medium. Aliquots of test compound dilutions (50 μl) were transferred to the wells of a 96-well plate. Control wells contained 0.4% DMSO in RPMI instead of compound.
Aliquots of the cell suspension (100 μl) were added to each well and the plates incubated at 37° C. for 30 minutes. 50 μl of 40 μg/ml LPS (Sigma, LA130) was added to wells to stimulate TNFα production by the cells and the plates were incubated overnight at 37° C. RPMI medium (50 μl) was added to negative control wells instead of LPS. The final incubation volume was 200 μl.
Plates were centrifuged for 4 minutes at 1,200 rpm and supernatants were removed for measurement of TNFα concentration. Viability of the remaining cell pellet was measured using WST-1 reagent (Boehringer Mannheim, 1044807). […] The absorbance at 450 nm was then measured using a 96-well plate spectrophotometer.
TNFα in the supernatants (freshly harvested or stored frozen at −20° C.) were measured using an enzyme-linked immunosorbant assay (ELISA). […]

A further experiment concerns the target T1, IKK-2 (Homo sapiens, UniProt O14920).
T1 sequence (O14920 1-756): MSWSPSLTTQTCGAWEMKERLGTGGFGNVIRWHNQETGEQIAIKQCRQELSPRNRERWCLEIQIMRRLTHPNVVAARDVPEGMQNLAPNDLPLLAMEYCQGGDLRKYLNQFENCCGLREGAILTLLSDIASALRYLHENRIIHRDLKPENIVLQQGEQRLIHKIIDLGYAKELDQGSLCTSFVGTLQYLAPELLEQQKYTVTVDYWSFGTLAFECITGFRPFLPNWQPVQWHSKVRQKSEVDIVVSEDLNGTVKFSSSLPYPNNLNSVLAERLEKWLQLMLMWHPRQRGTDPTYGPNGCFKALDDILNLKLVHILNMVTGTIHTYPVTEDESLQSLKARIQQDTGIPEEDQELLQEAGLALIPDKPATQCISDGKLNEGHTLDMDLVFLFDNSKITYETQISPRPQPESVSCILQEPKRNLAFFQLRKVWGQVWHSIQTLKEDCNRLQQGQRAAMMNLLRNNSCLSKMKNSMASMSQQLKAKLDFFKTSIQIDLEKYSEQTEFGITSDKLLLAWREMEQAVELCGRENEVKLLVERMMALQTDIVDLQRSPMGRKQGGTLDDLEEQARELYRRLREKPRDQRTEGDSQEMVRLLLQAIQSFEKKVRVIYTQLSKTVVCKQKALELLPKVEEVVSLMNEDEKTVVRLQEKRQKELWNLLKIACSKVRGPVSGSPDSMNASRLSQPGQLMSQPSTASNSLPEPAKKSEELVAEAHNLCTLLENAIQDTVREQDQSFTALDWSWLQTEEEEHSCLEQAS
The experiment is described as follows: IKK-2 filter kinase assay. It counts as biochemical. The conditions noted are these: 1 μM ATP, 1-53 GST-IκB substrate, read-out: Inhibition of IKK-2 IC50. How it is done: The test compounds were dissolved to 10 mM in dimethylsulphoxide (DMSO). The compounds were then diluted 1 in 40 in kinase buffer (50 mM Tris, pH 7.4 containing 0.1 mM EGTA, 0.1 mM sodium orthovanadate and 0.1% β-mercaptoethanol). 1 in 3 serial dilutions were made from this solution with 2.5% DMSO in kinase buffer. 20 μl of compound dilution was added to wells of a 96 well plate in duplicate.
10 μl of a mixture of magnesium acetate, unlabelled ATP, and ^33P-labelled ATP was added to each well made such that the final concentration was 10 mM magnesium acetate, 1 μM ATP and 0.1 μCi ^33P ATP. […] The final reaction volume was 50 μl.
The kinase reactions were incubated at 21° C. for 80 minutes and the reaction stopped by precipitating the protein by the addition of an equal volume (50 μl) of 20% trichloroacetic acid (TCA). The precipitate was allowed to form for 10 minutes and then filtered onto a GF/C unifilter 96 well plate. Each filter was washed twice with approximately 1 ml 2% TCA. The filter plate was dried at 30-40° C. for 60 minutes, 20 μl scintillant was added to each well and the plate sealed and radioactivity counted on a Packard Topcount microplate scintillation counter.

Turning to `NC(=O)Nc1sc(-c2ccc(CNCC(F)(F)F)cc2)cc1C(N)=O` [Example 1], the IC50 in experiment [1] is 420 nM; at IKK-2, 3.6 nM.
`CN(C)Cc1ccc(-c2cc(C(N)=O)c(NC(N)=O)s2)cc1` [Example 5, 2-[(Aminocarbonyl)amino]-5-{4-[dimethylaminomethyl]phenyl}thiophene-3-carboxamide]: the IC50 in experiment [1] came out at 120 nM; at IKK-2, 13 nM.
For `COCCN(C)Cc1ccc(-c2cc(C(N)=O)c(NC(N)=O)s2)cc1` [Example 56], the figures for the IC50 (in experiment [1]; at IKK-2) were 450 nM and 66 nM, respectively.
On to `NC(=O)Nc1sc(-c2ccc(CN(CCO)Cc3ccccc3)cc2)cc1C(N)=O` [Example 61, 2-[(Aminocarbonyl)amino]-5-[4-{([N-benzyl-N-(2-hydroxyethyl)]amino)methyl}phenyl]thiophene-3-carboxamide], for which the IC50 turned out to be 340 nM in experiment [1] and 0.56 nM on IKK-2.

As usually defined, the IC50 is the concentration needed to halve the response being measured.

These data come from patent publication US7572826B2, “Thiophene-carboxamide derivatives and their use as inhibitors of the enzyme IKK-2” (AstraZeneca AB, priority 2003, dated 2009).
